Patent US20170239351A1, “Therapeutic Combinations of a BTK Inhibitor, a PI3K Inhibitor, a JAK-2 Inhibitor, a PD-1 Inhibitor, and/or a PD-L1 Inhibitor” (Acerta Pharma B.V., priority 2014, published 2017)
Entries after “also recorded” stand apart in the source; their conditions may differ.

Tests used:
[1] = system: expression of activation markers CD69 and CD86; assay: In vivo potency: BCR stimulated with IgM, CD69 and CD86 expression by flow cytometry; conditions: mice gavaged, 3 h post-dose
Experimental: Mice were gavaged at increasing drug concentration and sacrificed at one time point (3 h post-dose). BCR is stimulated with IgM and the expression of activation markers CD69 and CD86 are monitored by flow cytometry to determine EC50's.

CLL = assay: Clinical study of Formula (XVIII) in CLL; assay type: in vivo
ID8 ovarian cancer [2] = assay: ID8 syngeneic orthotropic ovarian cancer model; assay type: in vivo, mice
KPC pancreatic cancer = KPC pancreatic cancer model; conditions: in vivo
T helper 17 (Th17) cells = assay: Effect on T helper 17 (Th17) cells; assay type: cell-based
CD8^+ T cell = assay: CD8+ T cell viability; assay type: cell-based
CD8^+ T cell function = assay: Cytotoxicity assay for CD8+ T cell function; assay type: cell-based; conditions: relative to vehicle
ID8 ovarian cancer [3] = assay: ID8 syngeneic orthotropic ovarian cancer murine model; assay type: in vivo, mice
Source text: Human ovarian cancer models, including the ID8 syngeneic orthotropic ovarian cancer model and other animal models, are described in Fong and Kakar, J. Ovarian Res. 2009, 2, 12; Greenaway, et al., Gynecol. Oncol. 2008, 108, 385-94; Urzua, et al., Tumour Biol. 2005, 26, 236-44; Janat-Amsbury, et al., Anticancer Res. 2006, 26, 3223-28; Janat-Amsbury, et al., Anticancer Res. 2006, 26, 2785-89. […] The results of the study are shown in FIG. 100, FIG. 101, FIG. 102, FIG. 103, FIG. 104, FIG. 105, FIG. 106, and FIG. 107.
Each cohort consisted of 12 mice. Every two weeks mice are injected with luciferin, and tumor growth was monitored using the Xenogen system (Caliper Life Sciences, PerkinElmer, Hopkinton, Mass., USA). Tumor size was measured by calculated flux.
The experiments were performed as described in Example 7.

human platelets = assay: GPVI (convulxin-induced) platelet aggregation; assay type: cell-based
Experimental: GPVI platelet aggregation was measured for Formula (XVIII) and Formula (XX-A) (ibrutinib). Blood was obtained from untreated humans, and platelets were purified from […] by centrifugation. Cells were resuspended to a final concentration of 350,000/μL in buffer containing 145 mmol/L NaCl, 10 mmol/L HEPES, 0.5 mmol/L Na2HPO4, 5 mmol/L KCl, 2 mmol/L MgCl2, 1 mmol/L CaCl2, and 0.1% glucose, at pH 7.4. Stock solutions of Convulxin (CVX) GPVI were prepared on the day of experimentation and added to platelet suspensions 5 minutes (37° C., 1200 rpm) before the induction of aggregation. Aggregation was assessed with a Chronolog Lumi-Aggregometer (model 540 VS; Chronolog, Havertown, Pa.) and permitted to proceed for 6 minutes after the addition of agonist. The results are reported as maximum percent change in light transmittance from baseline with platelet buffer used as a reference.
In FIG. 129, the results of CVX-induced (250 ng/mL) human platelet aggregation results before and 15 minutes after administration of the BTK inhibitors to 6 healthy individuals are shown.

Raji cells = assay: Rituximab ADCC assay (51Cr release), healthy donor NK cells; assay type: cell-based, human; conditions: 1 μM
CYP3A4 = CYP3A4 (Homo sapiens, UniProt P08684); assay: In vitro CYP metabolism and CYP interaction studies; assay type: in vitro ADME
NSCLC lung tumors = assay: Genetic tumor model of NSCLC (KrasLA2); assay type: in vivo, mice; conditions: 15 mg/kg
Source text: The model is designed to have sporadic expression in single cells of G12D mutant Kras off its own promoter triggered by spontaneous intrachromosomal recombination. Johnson, et al. Nature 2001, 410, 1111-16. While the mutant Kras protein is expressed in a few cells in all tissues, tumor development is seen only in the lung at high penetrance.

NK cells = assay: Whole blood NK cell degranulation/ADCC assay with obinutuzumab-opsonised MEC-1 cells; assay type: cell-based, human; conditions: CD56+/CD107a+ NK cells; n=3 experiments
[4] = Standard drug metabolism and pharmacokinetics (DMPK) assays; assay type: in vitro ADME
relapsed/refractory CLL [5] = conditions: human, in vivo
EGFR = EGFR (Homo sapiens, UniProt P00533); assay: EGF-induced EGFR phosphorylation in A431 cells (phosphoflow); conditions: 10 μM (highest concentration tested)
relapsed/refractory CLL [6] = assay: Clinical study of Formula (XVIII) in relapsed/refractory CLL/SLL

Sequence of EGFR (P00533 25-1210): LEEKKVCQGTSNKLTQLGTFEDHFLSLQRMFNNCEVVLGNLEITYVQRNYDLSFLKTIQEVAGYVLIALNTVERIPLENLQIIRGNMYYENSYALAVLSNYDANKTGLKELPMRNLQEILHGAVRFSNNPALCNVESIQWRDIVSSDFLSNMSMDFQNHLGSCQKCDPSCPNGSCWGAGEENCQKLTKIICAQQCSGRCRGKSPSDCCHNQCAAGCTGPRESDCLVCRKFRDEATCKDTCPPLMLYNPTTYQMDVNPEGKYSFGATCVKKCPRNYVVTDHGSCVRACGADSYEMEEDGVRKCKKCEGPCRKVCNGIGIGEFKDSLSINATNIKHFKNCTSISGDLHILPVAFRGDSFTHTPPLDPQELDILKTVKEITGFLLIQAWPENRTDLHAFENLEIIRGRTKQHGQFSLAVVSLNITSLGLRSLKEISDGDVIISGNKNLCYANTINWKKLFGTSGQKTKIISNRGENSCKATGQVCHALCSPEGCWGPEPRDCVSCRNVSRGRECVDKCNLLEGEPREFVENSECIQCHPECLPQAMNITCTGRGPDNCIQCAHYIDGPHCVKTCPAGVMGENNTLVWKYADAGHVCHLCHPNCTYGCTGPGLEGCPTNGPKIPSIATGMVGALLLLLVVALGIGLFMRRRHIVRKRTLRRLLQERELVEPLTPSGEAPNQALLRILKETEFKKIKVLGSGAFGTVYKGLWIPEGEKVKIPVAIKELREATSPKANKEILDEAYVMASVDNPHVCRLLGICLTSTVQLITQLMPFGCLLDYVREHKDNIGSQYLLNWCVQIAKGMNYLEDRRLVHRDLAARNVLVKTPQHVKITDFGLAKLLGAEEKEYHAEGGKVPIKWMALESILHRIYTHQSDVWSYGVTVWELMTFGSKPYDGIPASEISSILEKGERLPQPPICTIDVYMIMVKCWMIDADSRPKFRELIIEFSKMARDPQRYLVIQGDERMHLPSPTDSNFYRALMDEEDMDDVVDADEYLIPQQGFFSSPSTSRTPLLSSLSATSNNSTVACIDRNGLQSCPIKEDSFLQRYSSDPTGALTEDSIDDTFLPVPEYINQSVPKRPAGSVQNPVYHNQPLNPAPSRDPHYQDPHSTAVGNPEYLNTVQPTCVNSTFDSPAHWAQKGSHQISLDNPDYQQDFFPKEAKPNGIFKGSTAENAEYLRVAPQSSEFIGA
Sequence of CYP3A4 (P08684 whole entry): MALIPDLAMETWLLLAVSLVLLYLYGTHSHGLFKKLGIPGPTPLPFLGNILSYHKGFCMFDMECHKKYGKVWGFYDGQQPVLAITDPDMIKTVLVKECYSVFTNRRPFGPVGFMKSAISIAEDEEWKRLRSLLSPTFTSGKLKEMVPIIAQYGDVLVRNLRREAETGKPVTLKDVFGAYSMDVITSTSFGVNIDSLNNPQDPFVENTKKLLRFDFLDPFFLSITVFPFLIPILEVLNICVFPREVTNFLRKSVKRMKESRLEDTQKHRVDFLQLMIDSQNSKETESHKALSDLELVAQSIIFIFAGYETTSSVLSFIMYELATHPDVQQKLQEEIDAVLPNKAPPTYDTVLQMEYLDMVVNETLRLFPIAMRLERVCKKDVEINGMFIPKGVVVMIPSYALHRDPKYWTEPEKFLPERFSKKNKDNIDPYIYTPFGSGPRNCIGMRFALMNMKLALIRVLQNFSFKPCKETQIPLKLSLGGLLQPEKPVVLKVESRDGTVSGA

In the case of CC#CC(=O)N1CCC[C@H]1c1nc(-c2ccc(C(=O)Nc3ccccn3)cc2)c2c(N)nccn12 [Formula (XVIII), (S)-4-(8-amino-3-(1-(but-2-ynoyl)pyrrolidin-2-yl)imidazo[1,5-a]pyrazin-1-yl)-N-(pyridin-2-yl)benzamide], the “inhibition of expression of activation markers CD69 and CD86, compared with ibrutinib” value [1] is reported as “more potent at inhibiting expression of activation makers than ibrutinib”, the apoptosis (CLL; CLL patients treated) is reported as “increased apoptosis” and the “sum of the product of greatest diameters (SPD)” value (CLL; CLL patients, compared with ibrutinib) is reported as “decreases more rapidly”. For the same compound, the “absolute lymphocyte count (ALC)” value (CLL; CLL patients, relative to ibrutinib data of Byrd, et al.) was “much smaller relative increase and much faster decrease”, the CCL2 levels (CLL; patients treated) was “decrease in CCL2 levels” and the CXCL12 levels (CLL; patients treated) was “decrease in CXCL12 levels”. The “CD8+ T cells” value (ID8 ovarian cancer [2]; mouse, in vivo) was “increase in CD8^+ T cells”, the “immunosuppressive tumor associated Tregs” value (ID8 ovarian cancer [2]; mouse, in vivo) was “significant reduction in immunosuppressive tumor associated Tregs” and the “ID8 ovarian cancer growth” value (ID8 ovarian cancer [2]; syngeneic murine model, versus vehicle) was “impairs ID8 ovarian cancer growth”. For the same compound, the “B regulatory cells (Bregs)” value (ID8 ovarian cancer [2]; tumor-bearing mice) was “significant reduction in B regulatory cells (Bregs)”, the “total B cells” value (ID8 ovarian cancer [2]; tumor-bearing mice) was “significant reduction in total B cells” and the “immunosuppressive tumor associated lymphocytes” value (ID8 ovarian cancer [2]; tumor-bearing mice, versus vehicle) was “significant reduction in immunosuppressive tumor associated lymphocytes”. For the same compound, the “immunosuppressive MDSCs (Gr1+Ly6CHi) in tumor tissues” value (KPC pancreatic cancer) was “significantly reduced”, the “immunosuppressive TAMs (CD11b+Ly6ClowF4/80+Csf1r+) in tumor tissues” value (KPC pancreatic cancer) was “significantly reduced” and the “immunosuppressive Tregs (CD4+CD25+FoxP3+) in tumor tissues” value (KPC pancreatic cancer) was “significantly reduced”. For the same compound, the “effect on Th17 cells” value (T helper 17 (Th17) cells) was “no adverse effect on T helper 17 (Th17) cells”, the “effect on CD8+ T cell viability” value (CD8^+ T cell) was “no effect on CD8^+ T cell viability” and the “CD8+ T cell function as measured by % cytotoxicity” value (CD8^+ T cell function) was “no effect on CD8^+ T cell function”. The “cytolytic CD8^+ T cells” value (ID8 ovarian cancer [3]; 15 mg/kg/BID oral) was “increase”, the “immunosuppressive B cells in tumor-bearing mice” value (ID8 ovarian cancer [3]; 15 mg/kg/BID oral) was “significant reduction” and the “immunosuppressive tumor associated Tregs” value (ID8 ovarian cancer [3]; 15 mg/kg/BID oral) was “significant reduction”. For the same compound, the “ID8 ovarian cancer growth” value (ID8 ovarian cancer [3]; Formula (XVIII) 15 mg/kg BID oral, antibody 150 μg) was “impairs ID8 ovarian cancer growth”, the GPVI platelet aggregation (human platelets) was “does not” and the “effect on rituximab-mediated ADCC” value (Raji cells) was “not inhibited”. For the same compound, the “CYP responsible for loss of parent drug” value (CYP3A4) was “metabolized by CYP3A4”, the “drug-drug interaction potential via CYP enzymes” value (CYP3A4) was “very unlikely to cause clinical drug-drug interactions” and the number of tumors (NSCLC lung tumors) was “fewer overall tumors”. For the same compound, the “tumor volumes versus vehicle” value (NSCLC lung tumors) was “significant decrease in tumor volumes”, the “reduction of obinutuzumab-stimulated NK cell degranulation” value (NK cells) was “minimal effect” and the “solubility, plasma protein binding and oral bioavailability versus ibrutinib” value [4] was “greater solubility, less plasma protein binding, and better oral bioavailability than ibrutinib”. For the same compound, the “maximum tolerated dose (MTD)” value (relapsed/refractory CLL [5]) was “not reached”, the “inhibition of EGFR phosphorylation” value (EGFR) was “no inhibition; also recorded: does not inhibit EGFR” and the “PD, %” value (relapsed/refractory CLL [6]; 100 mg BID (N = 3)) was “(0) %”. For the same compound, the “PR, %” value (relapsed/refractory CLL [6]; 100 mg BID (N = 3)) was “(100) %”, the “PD, %” value (relapsed/refractory CLL [6]; 100 mg QD (N = 8)) was “(0) %” and the “PR, %” value (relapsed/refractory CLL [6]; 100 mg QD (N = 8)) was “(88) %”. For the same compound, the “PD, %” value (relapsed/refractory CLL [6]; 175 mg QD (N = 8)) was “(0) %”, the “PR + L, %” value (relapsed/refractory CLL [6]; 175 mg QD (N = 8)) was “(37) %” and the “PR, %” value (relapsed/refractory CLL [6]; 175 mg QD (N = 8)) was “(63) %”. The “PD, %” value (relapsed/refractory CLL [6]; 250 mg QD (N = 7)) was “(0) %”, the “PR + L, %” value (relapsed/refractory CLL [6]; 250 mg QD (N = 7)) was “(29) %” and the “PR, %” value (relapsed/refractory CLL [6]; 250 mg QD (N = 7)) was “(71) %”. For the same compound, the “PD, %” value (relapsed/refractory CLL [6]; 400 mg QD (N = 5)) was “(0) %”, the “PR + L, %” value (relapsed/refractory CLL [6]; 400 mg QD (N = 5)) was “(40) %” and the “PR, %” value (relapsed/refractory CLL [6]; 400 mg QD (N = 5)) was “(40) %”. The “PD, %” value (relapsed/refractory CLL [6]; All Cohorts (N = 31)) was “(0) %”, the “PR + L, %” value (relapsed/refractory CLL [6]; All Cohorts (N = 31)) was “(23) %” and the “PR, %” value (relapsed/refractory CLL [6]; All Cohorts (N = 31)) was “(71) %”. For the same compound, the “time of treatment to reach the same median % change in SPD” value (relapsed/refractory CLL [6]; CLL patients) was 7 months, the “Headache, treatment-related adverse event” value (relapsed/refractory CLL [6]; Grade 1/2, All (N = 44)) was 7 (16) n (%) and the “Diarrhea, treatment-related adverse event” value (relapsed/refractory CLL [6]; Grade 1, All (N = 44)) was 4 (9) n (%). For the same compound, the “Increased tendency to bruise, treatment-related adverse event” value (relapsed/refractory CLL [6]; Grade 1, All (N = 44)) was 6 (14) n (%), the “Petechiae, treatment-related adverse event” value (relapsed/refractory CLL [6]; Grade 1, All (N = 44)) was 3 (7) n (%) and the “dose-limiting toxicities (DLTs)” value (relapsed/refractory CLL [6]; human, in vivo) was “No DLTs were observed”. The “grade of adverse events” value (relapsed/refractory CLL [6]; human, in vivo) was “only grade 1 AEs were observed”, the lymphocytosis (relapsed/refractory CLL [6]; human, in vivo) was “A lack of lymphocytosis was observed” and the “plasma CXCL12 and CCL2 levels” value (relapsed/refractory CLL [6]; human, in vivo) was “significant decrease”. The “treatment-related serious adverse events (SAEs)” value (relapsed/refractory CLL [6]; human, in vivo) was “No treatment-related serious adverse events (SAEs) were observed” and the “progression in patients with the 17p deletion” value (relapsed/refractory CLL [6]; to date) was “no 17p patients have progressed”.
